Assay results taken from the CheMixHub viscosity set.

Assay: xn = mol fraction of the nth substance listed

CC(=O)O.NCCO + CCO
viscosity [mPa·s], 101 kPa
Settings	x1 = 0.0193	x2 = 0.7231	x2 = 0.7996	x2 = 0.8604	x2 = 0.9136	x2 = 0.9373	x2 = 0.9595
293.15 K	1.608	20.45	9.894	5.502	3.168	2.55	1.998
298.15 K	1.458	16.96	8.454	4.8	2.85	2.28	1.806
303.15 K	1.32	14.22	7.26	4.212	2.55	2.07	1.65

CC(C)CC(C)O (stereo unspecified) + CCO
298.15 K, 101.33 kPa
Settings	viscosity [mPa·s]
x2 = 0.1103	3.682
x2 = 0.2012	3.495
x2 = 0.3207	3.131
x2 = 0.4152	2.817
x2 = 0.5152	2.487
x2 = 0.6098	2.16
x2 = 0.7078	1.883
x2 = 0.8008	1.6
x2 = 0.8981	1.342

CCCCC + CCO
298.15 K, 101.33 kPa
Settings	viscosity [mPa·s]
x2 = 0.0673	0.245
x2 = 0.1351	0.255
x2 = 0.2366	0.288
x2 = 0.3031	0.302
x2 = 0.4034	0.347
x2 = 0.5262	0.425
x2 = 0.6339	0.521
x2 = 0.7315	0.634
x2 = 0.8097	0.742
x2 = 0.9174	0.927

CCCCCCCCn1cc[n+](C)c1.O=[N+]([O-])[O-] + CCO
Settings	viscosity [mPa·s]
293.15 K, 101 kPa, x2 = 0.128	464.3

CCCCCCCO + CCO
viscosity [mPa·s], 101 kPa
Settings	298.15 K	308.15 K	318.15 K
x2 = 0.05	5.456	4.038	3.025
x2 = 0.1	5.144	3.82	2.89
x2 = 0.15	4.838	3.607	2.75
x2 = 0.2	4.539	3.4	2.607
x2 = 0.25	4.249	3.199	2.465
x2 = 0.3	3.969	3.005	2.325
x2 = 0.35	3.699	2.817	2.188
x2 = 0.4	3.439	2.636	2.055
x2 = 0.45	3.191	2.462	1.927
x2 = 0.5	2.954	2.294	1.805
x2 = 0.55	2.727	2.132	1.688
x2 = 0.6	2.512	1.977	1.577
x2 = 0.65	2.306	1.827	1.471
x2 = 0.7	2.111	1.682	1.369
x2 = 0.75	1.924	1.543	1.271
x2 = 0.8	1.744	1.408	1.174
x2 = 0.85	1.571	1.276	1.078
x2 = 0.9	1.403	1.147	0.9796
x2 = 0.95	1.237	1.021	0.8769

CCN(CC)S(C)(=O)=O + CCO
303.15 K, 101.33 kPa
Settings	viscosity [mPa·s]
x1 = 0.0656	100000
x1 = 0.1402	106700
x1 = 0.2228	117500
x1 = 0.2849	127400
x1 = 0.3659	142400
x1 = 0.4606	163500
x1 = 0.5135	176500
x1 = 0.5968	200200
x1 = 0.6622	221700
x1 = 0.743	253300
x1 = 0.8454	302600
x1 = 0.9395	359700

CS(C)=O + CCO
Settings	viscosity [mPa·s]
293.15 K, 100 kPa, x2 = 0.08	2.021
293.15 K, 100 kPa, x2 = 0.16	1.873
293.15 K, 100 kPa, x2 = 0.23	1.756
293.15 K, 100 kPa, x2 = 0.3	1.666
293.15 K, 100 kPa, x2 = 0.36	1.572
298.15 K, 100 kPa, x2 = 0.08	1.828
298.15 K, 100 kPa, x2 = 0.16	1.701
298.15 K, 100 kPa, x2 = 0.23	1.598
298.15 K, 100 kPa, x2 = 0.3	1.517
298.15 K, 100 kPa, x2 = 0.36	1.436
298.15 K, 101 kPa, x1 = 0.061	1.182
298.15 K, 101 kPa, x1 = 0.2	1.291
298.15 K, 101 kPa, x1 = 0.37	1.466
298.15 K, 101.3 kPa, x1 = 0.0616	1.015
298.15 K, 101.3 kPa, x1 = 0.1286	1.021
298.15 K, 101.3 kPa, x1 = 0.2019	1.022
298.15 K, 101.3 kPa, x1 = 0.2801	1.056
298.15 K, 101.3 kPa, x1 = 0.3708	1.114
298.15 K, 101.3 kPa, x1 = 0.4693	1.187
298.15 K, 101.3 kPa, x1 = 0.5814	1.298
298.15 K, 101.3 kPa, x1 = 0.7023	1.454
298.15 K, 101.3 kPa, x1 = 0.7609	1.538
298.15 K, 101.3 kPa, x1 = 0.8414	1.657
298.15 K, 101.3 kPa, x1 = 0.933	1.851
298.15 K, 101.31 kPa, x1 = 0.1026	1.034
298.15 K, 101.31 kPa, x1 = 0.1971	1.029
298.15 K, 101.31 kPa, x1 = 0.2892	1.061
298.15 K, 101.31 kPa, x1 = 0.4043	1.137
298.15 K, 101.31 kPa, x1 = 0.5029	1.234
298.15 K, 101.31 kPa, x1 = 0.62	1.352
298.15 K, 101.31 kPa, x1 = 0.7117	1.491
298.15 K, 101.31 kPa, x1 = 0.8036	1.634
298.15 K, 101.31 kPa, x1 = 0.9017	1.807
299 K, 101 kPa, x1 = 0.0519	1.711
299 K, 101 kPa, x1 = 0.1593	1.696
299 K, 101 kPa, x1 = 0.3301	1.895
299 K, 101 kPa, x1 = 0.451	2.099
299 K, 101 kPa, x1 = 0.5779	2.34
299 K, 101 kPa, x1 = 0.7807	2.572
303.15 K, 100 kPa, x2 = 0.16	1.552
303.15 K, 100 kPa, x2 = 0.3	1.39
303.15 K, 100 kPa, x2 = 0.36	1.317
303.15 K, 101 kPa, x1 = 0.2	1.191
303.15 K, 101 kPa, x1 = 0.2004	1.205
303.15 K, 101 kPa, x1 = 0.37	1.366
303.15 K, 101.3 kPa, x1 = 0.0616	0.966
303.15 K, 101.3 kPa, x1 = 0.1286	0.932
303.15 K, 101.3 kPa, x1 = 0.2019	0.884
303.15 K, 101.3 kPa, x1 = 0.2801	0.904
303.15 K, 101.3 kPa, x1 = 0.3708	0.938
303.15 K, 101.3 kPa, x1 = 0.4693	1.064
303.15 K, 101.3 kPa, x1 = 0.5814	1.201
303.15 K, 101.3 kPa, x1 = 0.7023	1.354
303.15 K, 101.3 kPa, x1 = 0.7609	1.481
303.15 K, 101.3 kPa, x1 = 0.933	1.685
308.15 K, 100 kPa, x2 = 0.16	1.426
308.15 K, 100 kPa, x2 = 0.3	1.28
308.15 K, 100 kPa, x2 = 0.36	1.213
308.15 K, 101 kPa, x1 = 0.061	1.002
308.15 K, 101 kPa, x1 = 0.2	1.091
308.15 K, 101 kPa, x1 = 0.37	1.266
308.15 K, 101.31 kPa, x1 = 0.1026	0.882
308.15 K, 101.31 kPa, x1 = 0.1971	0.893
308.15 K, 101.31 kPa, x1 = 0.2892	0.916
308.15 K, 101.31 kPa, x1 = 0.4043	0.981
308.15 K, 101.31 kPa, x1 = 0.5029	1.056
308.15 K, 101.31 kPa, x1 = 0.62	1.159
308.15 K, 101.31 kPa, x1 = 0.7117	1.26
308.15 K, 101.31 kPa, x1 = 0.8036	1.375
308.15 K, 101.31 kPa, x1 = 0.9017	1.511
313.15 K, 100 kPa, x2 = 0.08	1.402
313.15 K, 100 kPa, x2 = 0.16	1.312
313.15 K, 100 kPa, x2 = 0.23	1.237
313.15 K, 100 kPa, x2 = 0.3	1.181
313.15 K, 100 kPa, x2 = 0.36	1.121
318.15 K, 101.31 kPa, x1 = 0.1026	0.745
318.15 K, 101.31 kPa, x1 = 0.1971	0.753
318.15 K, 101.31 kPa, x1 = 0.2892	0.782
318.15 K, 101.31 kPa, x1 = 0.4043	0.835
318.15 K, 101.31 kPa, x1 = 0.5029	0.908
318.15 K, 101.31 kPa, x1 = 0.62	0.994
318.15 K, 101.31 kPa, x1 = 0.7117	1.067
318.15 K, 101.31 kPa, x1 = 0.8036	1.171
318.15 K, 101.31 kPa, x1 = 0.9017	1.28
323.15 K, 101 kPa, x1 = 0.8011	1.125

C[N+](C)(C)CCC[n+]1ccccc1.N#C[N-]C#N.N#C[N-]C#N + CCO
viscosity [mPa·s], 100 kPa
Settings	293.15 K	313.15 K	323.15 K
x1 = 0.7003	–	–	75.75
x1 = 0.7998	614.5	161.5	99.22

CCCCCCCO + CCOC(C)=O
viscosity [mPa·s], 101.33 kPa
Settings	x2 = 0.1277	x2 = 0.2478	x2 = 0.3609	x2 = 0.4677	x2 = 0.5686	x2 = 0.6673	x2 = 0.7546	x2 = 0.8406
298.15 K	3.587	2.423	1.721	1.284	1	0.823	0.663	0.569
303.15 K	3.13	2.144	1.543	1.184	0.914	0.752	0.627	0.529
308.15 K	2.724	1.904	1.41	1.065	0.839	0.696	0.576	0.496

CCOC(=O)C(C)O (stereo unspecified) + CN1CCCC1=O
viscosity [mPa·s], 101 kPa
Settings	293.15 K	313.15 K
x1 = 0.0999	–	1.525
x1 = 0.3001	2.585	1.765
